This is an account of results in DBAASP.

Test systems include Candida glabrata 090902; Bacillus cereus; Bacillus subtilis; Candida krusei CCM 8271; Escherichia coli AS1.349; Bacillus cereus AS1.126.
Experiment in all cases: ≥ marks a high value that may be exact or a test limit, other limits are often not marked, values filed in µg/mL are converted to µM
Assay [1] deals with Nocardia asteroides 201118.
For assay [2], the system named is Psychrobacter faecalis X29.
Assay [3] relates to Staphylococcus aureus ATCC 25923.
For assay [4], the system named is Enterococcus faecalis 981.
Assay [5] deals with Pseudomonas syringae pv. syringae EPS 94.
The subject of assay [6] is Candida albicans CCM 8186.
In assay [7] the test system is Xanthomonas arboricola pv. pruni CFBP 5563.
In assay [8] the test system is Candida glabrata CCM 8270.
Assay [9] has as its system Erwinia amylovora PMV 6076.
The subject of assay [10] is Candida parapsilosis CCM 8260.
The subject of assay [11] is Fusobacterium nucleatum ATCC 10953.
Assay [12] has as its system Pseudomonas aeruginosa PCM 499.
Assay [13] has as its system Candida tropicalis CCM 8264.
Assay [14] concerns Pseudomonas syringae pv. actinidiae Psa3700.1.1.
Assay [15] concerns Xanthomonas campestris pv. Vesicatoria 2133-2.
In assay [16] the test system is Porphyromonas gingivalis ATCC 33277.
The subject of assay [17] is Xanthomonas fragariae Xf349-9A.
Assay [18] concerns Staphylococcus epidermidis PCM 2118.
The test system of assay [19] is Staphylococcus aureus PCM 2054.
Assay [20] relates to Escherichia coli PCM 2057.
Assay [21] has as its system Lactococcus lactis AS1.1690.
Assay [22] relates to Pseudomonas aeruginosa CGMCC 1.860.
For assay [23], the system named is Proteus mirabilis CICC 22931.
The test system of assay [24] is Enterococcus faecium CGMCC 1.2334.
Assay [25] deals with Staphylococcus aureus AS1.72.
Assay [26] concerns Klebsiella aerogenes CGMCC 1.876.
Assay [27] relates to Enterococcus faecalis CGMCC 1.595.
The subject of assay [28] is Enterobacter cloacae CGMCC 1.58.
In assay [29] the test system is Acinetobacter baumannii CICC 22934.
The test system of assay [30] is Klebsiella pneumoniae subsp. pneumoniae CGMCC 1.176.
In assay [31] the test system is Escherichia coli NBRC 14237.
The subject of assay [32] is Micrococcus luteus NBRC 12708.
Assay [33] relates to Staphylococcus aureus NBRC 12732.
Assay [34] deals with Pseudomonas aeruginosa NBRC 12582.
For assay [35], the system named is Klebsiella pneumoniae ATCC 700603.
Assay [36] relates to Salmonella enterica subsp. enterica serovar Typhimurium ATCC 14028.
Assay [37] concerns Pseudomonas aeruginosa Pa4-SA2.
In assay [38] the test system is Pseudomonas aeruginosa PAO1.
The test system of assay [39] is Pseudomonas aeruginosa ATCC 27853.
Assay [40] has as its system Staphylococcus aureus ATCC 29313.
Assay [41] relates to Pseudomonas aeruginosa PA006.
In assay [42] the test system is Pseudomonas aeruginosa Pa1-SA2.
Assay [43] deals with Escherichia coli ATCC 25922.

Converted amounts (≈) assume the structure as drawn.

For the compound `CC[C@H](C)[C@H](NC(=O)[C@H](CC(C)C)NC(=O)CNC(=O)[C@@H]1CCCN1C(=O)[C@H](CC(C)C)NC(=O)[C@@H](N)Cc1ccccc1)C(=O)N[C@@H](CCCCN)C(=O)N[C@@H](C)C(=O)N[C@@H](C)C(=O)N[C@H](C(=O)NCC(=O)N[C@H](C(=O)NCC(=O)N[C@@H](CO)C(=O)N[C@H](C(=O)N[C@H](C(=O)N[C@@H](CC(C)C)C(=O)N[C@H]1CSSC[C@@H](C(=O)O)NC(=O)[C@H](CCCCN)NC(=O)[C@H](CCCCN)NC(=O)[C@H]([C@@H](C)O)NC(=O)[C@H]([C@@H](C)CC)NC(=O)[C@H](CCCCN)NC1=O)[C@@H](C)CC)[C@@H](C)O)C(C)C)C(C)C` [FLPGLIKAAVGVGSTILCKITKKC], the MIC (usually the smallest concentration in the dilution series that meets the test's criterion for growth inhibition) in the assay with Candida glabrata 090902 was 12.5 µM (≈ 30.7 µg/mL); in assay [1], 6.3 µM (≈ 15.5 µg/mL); in [2] it was not below 50 µM; in assay [3], 12.5 µM (≈ 30.7 µg/mL); in assay [4] it was 6.3 µM (≈ 15.5 µg/mL).
As for `CC(C)[C@H](NC(=O)[C@H](Cc1c[nH]c2ccccc12)NC(=O)[C@H](Cc1ccccc1)NC(=O)[C@@H](NC(=O)[C@@H](NC(=O)[C@H](CCCCN)NC(=O)[C@@H](N)CCCCN)C(C)C)C(C)C)C(=O)N[C@@H](CCCCN)C(=O)N[C@@H](Cc1ccccc1)C(=O)N[C@@H](CCCCN)C(N)=O` [KKVVFWVKFK], the MIC is 8.8 µM (≈ 11.5 µg/mL) in [5]; not below 38.2 µM in the assay on Bacillus cereus; 5.96 µM (≈ 7.79 µg/mL) in assay [6]; 1.13 µM (≈ 1.48 µg/mL) in assay [7]; 11.9 µM (≈ 15.6 µg/mL) in assay [8]; 8.8 µM (≈ 11.5 µg/mL) in assay [9]. Moreover, the MIC in assay [10] was 1.53 µM (≈ 2 µg/mL); in assay [11], 11.9 µM (≈ 15.6 µg/mL); in assay [12], 19.1 µM (≈ 25 µg/mL); in assay [13], 1.53 µM (≈ 2 µg/mL); in assay [14], 2.23 µM (≈ 2.91 µg/mL); in assay [15], 8.8 µM (≈ 11.5 µg/mL). The minimal inhibitory concentration (MIC) is 5.96 µM (≈ 7.79 µg/mL) against Bacillus subtilis; 5.96 µM (≈ 7.79 µg/mL) against Candida krusei CCM 8271; not below 95.5 µM in assay [16]; 4.38 µM (≈ 5.73 µg/mL) in assay [17]; 5.96 µM (≈ 7.79 µg/mL) in assay [18]; 19.1 µM (≈ 25 µg/mL) in [19]. The compound also gave an MIC in [20] of 5.96 µM (≈ 7.79 µg/mL).
As to `CC(C)C[C@H](NC(=O)[C@H](CCCCN)NC(=O)[C@H](CCCN=C(N)N)NC(=O)[C@H](Cc1cnc[nH]1)NC(=O)[C@H](C)NC(=O)[C@H](CCCN=C(N)N)NC(=O)[C@H](Cc1cnc[nH]1)NC(=O)[C@H](CC(C)C)NC(=O)[C@H](Cc1ccccc1)NC(=O)[C@H](CCCN=C(N)N)NC(=O)[C@H](CCCN=C(N)N)NC(=O)[C@H](CC(C)C)NC(=O)[C@H](Cc1cnc[nH]1)NC(=O)[C@H](CCCN=C(N)N)NC(=O)[C@H](CC(C)C)NC(=O)[C@@H](NC(=O)[C@H](CCCCN)NC(=O)[C@@H](N)CO)C(C)C)C(=O)O` [SKVLRHLRRFLHRAHRKL], the MIC in assay [21] was 3.13 µM (≈ 7.27 µg/mL); with Escherichia coli AS1.349 it was not below 100 µM; in assay [22], not below 100 µM; in assay [23] it was not below 100 µM; in [24], 3.13 µM (≈ 7.27 µg/mL); in the assay with Bacillus cereus AS1.126 it was 1.56 µM (≈ 3.63 µg/mL). The MIC in assay [25] is 2.34 µM (≈ 5.44 µg/mL); in assay [26] it was not below 100 µM; in assay [27], 3.13 µM (≈ 7.27 µg/mL); in assay [28], not below 100 µM; in [29], not below 100 µM; in assay [30], not below 100 µM.
For the compound `CC[C@H](C)[C@H](NC(=O)[C@@H](N)Cc1ccccc1)C(=O)NCC(=O)N[C@@H](C)C(=O)N[C@@H](CC(C)C)C(=O)N[C@@H](CC(C)C)C(=O)NCC(=O)N1CCC[C@H]1C(=O)N[C@@H](CC(C)C)C(=O)N[C@@H](CC(C)C)C(=O)N[C@@H](CC(N)=O)C(=O)N[C@@H](CC(C)C)C(=O)N[C@@H](CC(C)C)C(=O)N[C@@H](CCCCN)C(N)=O` [FIGALLGPLLNLLK], the MIC in assay [31] was not below 50 µM; in [32], 12.5 µM (≈ 18.5 µg/mL); in [33], 12.5 µM (≈ 18.5 µg/mL); in assay [34], not below 50 µM.
As for `CC[C@H](C)[C@H](NC(=O)[C@H](C)NC(=O)[C@H](Cc1cnc[nH]1)NC(=O)[C@H](C)NC(=O)[C@@H](NC(=O)[C@H](CC(C)C)NC(=O)[C@H](CC(=O)O)NC(=O)[C@H](CCCCN)NC(=O)CNC(=O)[C@H](C)NC(=O)CNC(=O)[C@H](CCCCN)NC(=O)[C@@H](NC(=O)[C@@H](NC(=O)[C@H](CC(=O)O)NC(=O)[C@@H](NC(=O)[C@@H](NC(=O)CN)C(C)C)[C@@H](C)CC)[C@@H](C)CC)[C@@H](C)CC)[C@@H](C)CC)C(=O)NCC(=O)N[C@@H](CCCCN)C(=O)N[C@@H](CC(C)C)C(=O)N[C@@H](C)C(=O)N[C@@H](CCC(=O)O)C(=O)N[C@@H](CCCCN)C(=O)N[C@H](C(N)=O)C(C)C` [GVIDIIKGAGKDLIAHAIGKLAEKV], the MIC was more than 316 µM in [35]; more than 316 µM in assay [36]; 25.3 µM (≈ 64 µg/mL) in assay [37]; 202 µM (≈ 512 µg/mL) in [38]; more than 202 µM in [39]; not below 316 µM in [40]. Also, the MIC in assay [41] is 6.32 µM (≈ 16 µg/mL); in assay [42], not below 50.6 µM; in [43] it was 316 µM (≈ 800 µg/mL).
